Measurements reported in patent publication US6794412B1, “Treatment of thrombosis by combined use of a factor Xa inhibitor and aspirin” (Bristol-Myers Squibb Pharma Company, priority 1999, dated 2004).

System: rabbit model of arterial thrombosis
Assay: Electrically induced carotid artery thrombosis in rabbits, carotid blood flow over 90 min
Type: in vivo
Method: Rabbits were anesthetized with ketamine (50 mg/kg i.m.) and xylazine (10 mg/kg i.m.) and then surgically prepared with arterial and venous catheters. An electromagnetic flow probe was placed on a segment of an isolated carotid artery to monitor blood flow. Thrombus formation was induced by electrical stimulation of the carotid artery for 3 min at 4 mA using an external stainless-steel bipolar electrode. Carotid blood flow was measured continuously over a 90-min period to monitor thrombus occlusion. Test agents were infused intravenously 1 hour prior to the electrical stimulation of the carotid artery and continuously during the 90-min period.

[1] = Factor Xa inhibitor alone 0.1 mg/kg/hr i.v. infusion

SMILES | prevention of occlusion of the carotid artery [1] | further results
CC(=O)Oc1ccccc1C(=O)O [Aspirin] |  | prevention of occlusion of the carotid artery (aspirin alone 1 mg/kg/hr i.v. infusion from 1 hour before stimulation and during 90 min): did not prevent the occlusion of the artery
CS(=O)(=O)c1ccccc1-c1ccc(NC(=O)c2cc(C(F)(F)F)nn2-c2cccc(CN)c2)c(F)c1.O=C(O)C(F)(F)F [Compound (1)] | did not prevent the occlusion of the artery | 
NCc1cccc(-n2nc(C(F)(F)F)cc2C(=O)Nc2ccc(-c3ccccc3S(N)(=O)=O)cc2)c1.O=C(O)C(F)(F)F [Compound (3)] | did not prevent the occlusion of the artery | 
CS(=O)(=O)O.Cc1noc(C)c1S(=O)(=O)N[C@@H](CNC(=O)C[C@H]1CC(c2ccc(C(=N)N)cc2)=NO1)C(=O)O [Compound (4)] |  | prevention of occlusion of the carotid artery (Compound (4) alone 0.03 mg/kg/hr i.v.): did not prevent the occlusion of the artery
